Results on 64 compounds are retold here after PubChem BioAssay AID179 (DTP/NCI, 2004).

Molecules are shown by their SMILES. pEC50, pIC50: −log10 of the molar value. Calls of active or inactive are those of the source.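 Rule for the calls: active = compounds giving half or more protection of infected cells from virus-caused growth loss, again on retest; inactive = the rest.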 Where a SMILES comes first, the peptide text is derived from it. Bridges are numbered along the chain shown (N, C = ends). Roman numbers before positions name the chains, in order. [ ]: non-standard residue; d: D form. The star is where a group is joined. ξ: configuration not given here. NMeF = CN[C@@H](Cc1ccccc1)C(=O)O; NMeV = CN[C@H](C(=O)O)C(C)C; ξNMeN = CNC(CC(N)=O)C(=O)O; NMeA = CN[C@@H](C)C(=O)O; ξNMeV = CNC(C(=O)O)C(C)C; Cbz = O=C(OCc1ccccc1)*; Boc = CC(C)(C)OC(=O)* Bounds are passed on as bounds.

For this assay, the system named is CEM cells HIV-1 protection, formazan growth assay. Briefly: NCI AIDS Antiviral Assay. As to conditions: for pIC50: measured here: growth of uninfected CEM cells. In a few lines:
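Human CEM cells, uninfected and HIV-1-infected, received five drug concentrations, and growth was read by soluble formazan assay. Compounds giving at least 50% protection were retested; reproducible 100% protection defined confirmed active.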

As to `COC1/C=C\C=C(/C)C(=O)Nc2cc3nc4ccc(Br)cc4oc-3c(c2=O)CC(C)CC(OC)C(O)C(C)/C=C(\C)C1OC(N)=O` (configuration not stated), the pEC50 (in general, the EC50 on a negative log10 scale, so that one unit is a factor of ten) is less than 6.70 and the pIC50 – broadly, −log10 of the IC50, conventionally taken in molar units – is 7.94.

Consider `C=C1CCCCCCCCCCC1S(=O)c1ccccc1` (configuration not stated), for which the pEC50 was less than 3.70 and the negative-log IC50 (pIC50) is 4.92.

Take `N#Cc1c2c(c(N3CCOCC3)n3c1nc1ccccc13)CCCC2`: the pEC50 is less than 3.70 and the pIC50 was 5.08.

With `O=c1c2ccccc2nnn1N1CCOCC1`, the pEC50 is less than 4.09 and the pIC50 is less than 4.09.

Regarding `CN(/N=C/c1ccc(Cl)c(Cl)c1)C1=NCCN1`, the pEC50 is less than 3.70 and the pIC50 is 4.79.

In the case of `COc1ccc(NC(=S)Nc2cccc(C)n2)cc1`, the pEC50 was less than 3.70 and the negative-log IC50 (pIC50) was less than 3.70.

Regarding `CC(C)CC(NC(=O)C(Cc1cnc[nH]1)NC(=O)C(CC(N)=O)NC(=O)C(NC(=O)C(CO)NC(=O)C(Cc1ccc(O)cc1)NC(=O)C(CO)NC(=O)C(C)NC(=O)C(N)CCCCN)C(C)O)C(=O)O` (configuration not stated) (H-KASYSTNHL-OH; configuration not given here), the pEC50 was less than 4.21 and the pIC50 is less than 4.21.

For the compound `O=C(O)CCC(=O)NCCNC(=O)CC(=O)O`, the pEC50 was less than 3.00 and the negative-log IC50 (pIC50) was less than 3.00.

Consider `COC(=O)[C@H](C)N(C)C(=O)C(CC(N)=O)N(C)C(=O)[C@H](Cc1ccccc1)N(C)C(=O)[C@@H]1CCCN1C(=O)[C@H](C(C)C)N(C)C(=O)C(C(C)C)N(C)C(=O)[C@@H](NC(=O)OC(C)(C)C)C(C)C` (some centres not stated) (Boc-V[ξNMeV][NMeV]P[NMeF][ξNMeN][NMeA]-OMe), for which the pEC50 is less than 4.27 and the pIC50 was 4.30.

Consider `CSC(=Nc1ccc([N+](=O)[O-])cc1C#N)NC(=O)c1ccccc1`, for which the result was inactive.

For `C=CCC12CC(O)C(O)CC1(O)OC(c1cc(OC)c(OC)c(OC)c1)C2C` (configuration not stated), the pEC50 was less than 3.70 and the pIC50 was less than 3.70.

With `CN(C)C[C@H]1C2C=CC(C2)[C@@H]1CO` (some centres not stated), the pEC50 was less than 3.31 and the pIC50 is less than 3.31.

As for `COc1ccc2c(CCNS(=O)(=O)c3ccccc3)c(C(C)=O)[nH]c2c1[N+](=O)[O-]`, the result was inactive.

Take `CC(=O)c1ccccc1NS(=O)(=O)c1ccc2nc(C)n(NS(=O)(=O)c3ccccc3C(C)=O)c(=O)c2c1`: the pEC50 was less than 3.70 and the pIC50 was less than 3.70.

In the case of `CNC(=O)C1CCCCNC(=O)CCC(NC(=O)OCc2ccccc2)C(=O)N1` (stereo not drawn) (Cbz-Glu-Lys-NHMe; lactam 1-2; configuration not given here), the pEC50 is less than 3.70 and the negative-log IC50 (pIC50) is less than 3.70.

Turning to `OCCSCc1cc2c(O)c(c1)Cc1cc(CSCCO)cc(c1O)Cc1cc(CSCCO)cc(c1O)Cc1cc(CSCCO)cc(c1O)C2`, the pEC50 is less than 4.62 and the pIC50 was 5.30.

In the case of `O=c1oc2ccccc2c(O)c1C(c1ccc(C(c2c(O)c3ccccc3oc2=O)c2c(O)c3ccccc3oc2=O)cc1)c1c(O)c2ccccc2oc1=O`, the pEC50 was less than 3.70 and the pIC50 is 4.30.

`COC1(OC)CC(CO)(CNc2nc(N)nc(Cl)c2/C=N\O)C1`: the pEC50 was less than 3.70 and the pIC50 was 5.57.

Regarding `[Cu+2].[Cu+2].[NH-]c1c(N=Nc2ccc(/C=C/c3ccc(N=Nc4cc(S(=O)(=O)[O-])c5cccc(S(=O)(=O)[O-])c5c4[NH-])cc3S(=O)(=O)[O-])c(S(=O)(=O)[O-])c2)cc(S(=O)(=O)[O-])c2cccc(S(=O)(=O)[O-])c12.[Na+]`, the pEC50 was 4.98 and the pIC50 is 4.62.

As to `COC1OC2COC(c3ccccc3)OC2C2OC(=S)OC12` (configuration not stated), the outcome was inactive.

Take `COc1ccc(/C=C2\CCC(C)C3=C2N=c2s/c(=C/c4cccc(Br)c4)c(=O)n2C3c2ccc(OC)c(OC)c2)cc1OC` (configuration not stated): the pEC50 was less than 4.30 and the pIC50 is less than 4.30.

Regarding `Nc1ccc(SCc2ccc(C(=O)O)cc2)cc1`, the pEC50 is less than 4.55 and the pIC50 is less than 4.55.

For `COCCCC(NC(=O)C(CC(C)C)NC(=O)OCc1ccc(OC)cc1)C(=O)OC` (configuration not stated), the pEC50 is less than 3.70 and the pIC50 is 4.48.

On to `CCC(C)(O)c1cn(-c2ccc(Cl)cc2)nn1` (configuration not stated), for which the pEC50 was less than 3.15 and the negative logarithm of the IC50 (pIC50) was 3.49.

Take `Nn1c(-c2ccccc2Cl)nc2ccccc2c1=O`: the outcome was inactive.

On to `Cc1cc(=O)oc(C)c1C(=O)O`, for which the pEC50 is less than 3.70 and the pIC50 was less than 3.70.

Consider `O=C1C(c2ccccc2)=C(O)c2cccc3cccc1c23`, for which the pEC50 is less than 3.04 and the pIC50 was 4.07.

On to `O=S(=O)(O)c1ccc2c(N=Nc3cccc4ccccc34)c(O)c(S(=O)(=O)O)cc2c1`, for which the outcome was inactive.

With `CC1=C(C(=O)Nc2cccc(C(F)(F)F)c2)C(c2ccc(O)cc2)C(C(=O)Nc2cccc(C(F)(F)F)c2)=C(C)N1`, the pEC50 was less than 4.49 and the pIC50 was less than 4.49.

As to `Cc1cc(Cl)ccc1N1C(=O)C(=O)C(c2nc3ccccc3s2)/C(=N\NC(=O)c2ccccc2O)C1=O` (configuration not stated), the pEC50 was less than 4.59 and the pIC50 was less than 4.59.

On to `Cc1ccc(S(=O)(=O)N/N=C/C(=C/c2ccc(Cl)cc2)CC(/C=N/NS(=O)(=O)c2ccc(C)cc2)=C\c2ccc(Cl)cc2)cc1`, for which the pEC50 was less than 3.70 and the negative logarithm of the IC50 (pIC50) was 5.41.

On to `COC(=O)NC(=O)c1cn(C2CCCCC2)c(=O)[nH]c1=O`, for which the pEC50 is less than 3.91 and the pIC50 was less than 3.91.

For the compound `O=C(CCC(=O)Nc1cccc(C(F)(F)F)c1)CC(=O)c1ccc2ccccc2c1`, the outcome was inactive.

In the case of `COP(=O)(OC)C(Cc1cn(C(C)=O)c2ccccc12)C(=O)O` (configuration not stated), the pEC50 was less than 3.70 and the pIC50 was less than 3.70.

With `COc1ccc(/C=N/NC(=O)CSc2nc(-c3ccccc3)c(-c3ccccc3)[nH]2)cc1OC`, the pEC50 is less than 4.26 and the negative-log IC50 (pIC50) was 4.50.

Take `Cc1ccc(Nc2ncnc3sc(SCc4ccccc4)nc23)cc1`: the outcome was inactive.

Regarding `CC(CS(=O)(=O)O)NC(CO)(CO)CO` (configuration not stated), the pEC50 is less than 3.70 and the pIC50 is less than 3.70.

With `O=[N+]([O-])c1ccccc1CS(=O)(=O)c1ccccc1`, the outcome was inactive.

In the case of `COc1cc2c(c(OC)c1O)C(=O)CC(c1ccc(O)cc1)O2` (configuration not stated), the pEC50 is less than 3.70 and the pIC50 was 4.66.

On to `CCCCCCCCCCCC[N+]12CC[N+](C)(CC1)CC2`, for which the pEC50 is less than 3.60 and the pIC50 is 4.83.

As for `c1ccc([P+](CCN2Cc3ccccc3C2)(c2ccccc2)c2ccccc2)cc1`, the pEC50 was less than 3.70 and the pIC50 was 5.48.

For the compound `CC(C)N(C(C)C)[PH+]1O[PH+](N(C(C)C)C(C)C)O[PH+](N(C(C)C)C(C)C)O[PH+](N(C(C)C)C(C)C)O[PH+](N(C(C)C)C(C)C)O1.[C-]#[O+].[C-]#[O+].[C-]#[O+].[C-]#[O+].[C-]#[O+].[C-]#[O+].[C-]#[O+].[Cr].[Cr]` (configuration not stated), the pEC50 is less than 4.60 and the pIC50 is less than 4.60.

Take `CCc1c(O)n(Cc2ccccc2)c(=S)n(Cc2nc3ccccc3[nH]2)c1=O`: the pEC50 is less than 3.70 and the pIC50 is less than 3.70.

Regarding `CCOC(=O)c1ccc(CS(=O)(=O)c2ccc([N+](=O)[O-])cc2)cc1`, the pEC50 is less than 4.27 and the pIC50 was less than 4.27.

As for `CCN(CC)CCC(=O)c1ccc(Oc2ccc(F)cc2)cc1`, the pEC50 is less than 3.70 and the pIC50 is 4.64.

Regarding `c1cnc2nc3c4ccccc4c4ccccc4c3nc2c1`, the pEC50 was less than 4.45 and the pIC50 is less than 4.45.

As for `CC1OC(OC2C(Oc3cc(O)c4c(c3)OC(c3ccc(O)cc3)CC4=O)OC(CO)C(O)C2O)C(O)C(O)C1O` (configuration not stated), the pEC50 is less than 3.70 and the pIC50 is less than 3.70.

Take `CCOC(=O)C1C(NC(N)=O)N(Cc2ccccc2)C(=O)N1Cc1ccccc1` (configuration not stated): the pEC50 is less than 3.35 and the pIC50 is less than 3.35.

Take `C/C1=C/C(=O)O[C@@H]2C[C@@H](CC[C@H](C)/C=C\C=C\CC1)O[C@@](O)([C@@H]1CSC(=O)N1)C2`: the pEC50 was less than 5.70 and the negative-log IC50 (pIC50) was 6.44.

Regarding `Cc1nn(C)c(N)c1N=O`, the pEC50 was less than 3.70 and the pIC50 was less than 3.70.

As to `CCOC(=O)C(Cc1ccc(O)cc1)NC(=O)C(N)CSSCC(N)C(=O)NC(Cc1ccc(O)cc1)C(=O)OCC` (stereo not drawn) (I: H-Cys-Tyr-OEt / II: H-Cys-Tyr-OEt; disulfide I:1-II:1; configuration not given here), the pEC50 was less than 3.70 and the pIC50 is less than 3.70.

With `Clc1ccc2nc(CCSCCc3nc4ccc(Cl)cc4[nH]3)[nH]c2c1`, the result was inactive.

Regarding `COC(=O)C(=O)c1c2ccccc2n2ccc3c4ccccc4[nH]c3c12`, the pEC50 is less than 3.70 and the pIC50 was 4.08.

For `C1CSCCSCCSCCSC1`, the pEC50 is less than 4.41 and the pIC50 was less than 4.41.

As to `C#CCN1CCCC(O)C1` (configuration not stated), the result was inactive.

On to `COc1c2occc2c(N=Cc2ccncc2)c2ccc(=O)oc12`, for which the pEC50 is less than 4.40 and the pIC50 was less than 4.40.

As to `CN(C)/C=C/C(=O)c1cccc(C(=O)/C=C/N(C)C)n1`, the pEC50 was less than 4.72 and the pIC50 was less than 4.72.

With `CCCCCCCCCCCCCCCC(=O)OCC1CCCN2CCCCC12` (configuration not stated), the pEC50 is less than 3.70 and the pIC50 is less than 3.70.

Turning to `O=NN1C(c2ccccc2)CC(=NO)CC1c1ccccc1` (configuration not stated), the pEC50 is less than 3.70 and the pIC50 is 3.89.

In the case of `CCOC(=O)c1c(-c2ccccc2)c(C)cn1C`, the pEC50 is less than 3.70 and the pIC50 is 3.92.

Take `CC(C)(CO)N1C(=O)c2ccccc2C1(O)c1ccc(Cl)cc1` (configuration not stated): the pEC50 is less than 3.70 and the pIC50 was 4.04.

`CC1(C)CC(C2=NCCO2)CC(C)(C)N1`: the pEC50 was less than 3.70 and the pIC50 was less than 3.70.

Take `CC(OCc1ccccc1)C1OC2(C)CCC(=O)C1O2` (configuration not stated): the result was inactive.

In the case of `COC(=O)C(C(=O)C(=O)NC1Nc2ccc(C)cc2S1)c1nc2ccc(Cl)cc2[nH]c1=O` (configuration not stated), the pEC50 was less than 4.54 and the pIC50 is less than 4.54.
